In patent US20120004307A1, “ORAL TREATMENT OF DIGITAL ISCHEMIC LESIONS” (priority 2010, published 2012):
Where two headings read alike, the source gives them in different places.

Tests used:
[1] = for subjects who tolerated the dose: 10 SSc patients
Protocol: During a phase I PK trial of oral treprostinil in SSc patients, the goal was to quantify changes in perfusion as assessed by laser Doppler imaging (LDI) and to determine whether improvements in perfusion correlated with drug concentration.
10 SSc patients with recent or active DU participated in the study.
Dosing: Oral treprostinil titrated up to 4 mg twice daily (BID) as tolerated over 6-8 weeks. Pharmokinetics (PK) and laser Doppler imaging (LDI) assessments: performed when subjects achieved the 2 mg and 4 mg (or maximally tolerated dose) doses. […] 8 serial measures of digital perfusion and drug concentration were obtained over 12 hours at each of the 2 study visits.
Repeated measures analyses were performed using random effects model. Dependent variables were perfusion and skin temperature. The predictor of interest was log-transformed drug concentration. Covariates with p-values less than 0.15 were kept in the model. All data was used, across time points, visits, and hands.

[2] = DISTOL-1 randomized Phase IIB study of oral treprostinil diethanolamine versus placebo, digital ulcers in systemic sclerosis; format: in vivo, human
Excerpt: Primary: To assess the effect of oral treprostinil in reducing net ulcer burden compared to placebo in patients with systemic sclerosis (SSc) as measured by the change in net ulcer burden from Baseline to Follow-up between treatment groups at 20 weeks. […] Target enrollment of […] patients to complete 128 subjects. […] Primary analysis: effect of treprostinil versus placebo on change in net ulcer burden at Week 20 evaluated using non-parametric analysis of covariance within the framework of the extended Cochran-Mantel-Haenszel test.

[3] = 4 mg visit (but not the 2 mg visit), adjusted for time points of Doppler assessment
[4] = Subject 6, 4 mg visit, baseline at drug trough prior to administration of 4 mg dose
[5] = Subject 6, 4 mg visit, twelve hours after dosing

CCCCC[C@H](O)CC[C@@H]1[C@H]2Cc3cccc(OCC(=O)O)c3C[C@H]2C[C@H]1O.OCCNCCO [treprostinil diethanolamine, Treprostinil diethanolamine]
subjects who tolerated the dose ([1]; 2 mg BID by the first PK visit): Nine | subjects who tolerated the dose ([1]; 4 mg BID by the 2nd PK visit): 6 subjects | association of digital skin temperature with log-transformed plasma concentration [1, 3]: positively associated | association of perfusion with log-transformed plasma concentration [1, 3]: positively associated | perfusion versus drug exposure ([1]; AUCs, FIG. 4): increase in perfusion was observed with an increase in drug exposure | plasma concentration versus dose ([1]; AUCs, FIG. 4): increase in plasma concentration was observed with an increase in dose | mean perfusion (laser Doppler imaging) [1, 4]: 89.3 units | skin temperature [1, 4]: 25 °C | perfusion (laser Doppler imaging) [1, 5]: 298.3 units | skin temperature [1, 5]: 32 °C | adverse effects ([1]; titrated up to 4 mg BID over 6-8 weeks): transient and typical of prostacyclin therapy | change in net ulcer burden at Week 20 ([2]; ACA negative subset of patients): statistically significant changes were observed | Time to Cardinal Ulcer Healing (mean days) ([2]; Active n = 71): 76.3 ± 35 days | Time to all Ulcers Healed (mean days) ([2]; Active n = 71): 90.2 ± 35.6 days | Mean # of new ulcers ([2]; Active n = 71, listed under new ulcers formed after Week 5): 0.9 | All Ulcers Healed ([2]; Active n = 71, number (%)): 35 (49%) | Any new ulcers formed after Week 5? At least one new ([2]; Active n = 71, number (%)): 27 (38%) | Any new ulcers formed after Week 5? No new ([2]; Active n = 71, number (%)): 30 (42%) | Any new ulcers formed during study? At least one new ([2]; Active n = 71, number (%)): 39 (55%) | Any new ulcers formed during study? No new ([2]; Active n = 71, number (%)): 24 (34%) | Cardinal Ulcer Healed ([2]; Active n = 71, number (%)): 44 (62%) | Discontinuations: Adverse Event ([2]; Active n = 72, number (%) of subjects): 9 (13%) | Mean Change in Net Ulcer Burden Week 20 P value ([2]; Subgroup (ACA) Negative (n = 40/34)): 0.01 | Mean Change in Net Ulcer Burden Week 20 P value ([2]; Subgroup (ACA) Positive (n = 19/29)): 0.97 | Mean Change in Net Ulcer Burden Week 20 P value ([2]; Subgroup (ATA) Negative (n = 32/38)): 0.58 | Mean Change in Net Ulcer Burden Week 20 P value ([2]; Subgroup (ATA) Positive (n = 27/22)): 0.06 | Mean Change in Net Ulcer Burden Week 20 P value ([2]; Subgroup >2 active ulcers at Baseline (n = 10/10)): 0.51 | Mean Change in Net Ulcer Burden Week 20 P value ([2]; Subgroup ACA Negative/ATA Positive (n = 20/15)): 0.013 | Mean Change in Net Ulcer Burden Week 20 P value ([2]; Subgroup Diffuse SSc (n = 31/21)): 0.32 | Mean Change in Net Ulcer Burden Week 20 P value ([2]; Subgroup Limited SSc (n = 42/55 Active/Placebo)): 0.42 | Mean Change in Net Ulcer Burden Week 20 P value ([2]; Subgroup No PDEI background (n = 59/63)): 0.21 | Mean Change in Net Ulcer Burden Week 20 P value ([2]; Subgroup PDEI background (n = 12/13)): 0.90 | Mean Change in Net Ulcer Burden Week 20 P value ([2]; Subgroup ≦2 active ulcers at Baseline (n = 61/66)): 0.10 | Patient Global and Digital Ulcer pain VAS ([2]; Week 20): Improvement not reaching statistical significance | symptomatic relief of pain and functional deficits associated with ischemic vascular disease ([2]; patients with scleroderma and digital ulcers, orally administered): provided symptomatic relief of pain | change in net ulcer burden at Week 20, primary analysis ([2]; total population, versus placebo): did not achieve statistical significance
